Series [1] can be described thus: Drug degradation in ammonium carbonate solution 0.3 mg after 24 hrs after RP-HPLC analysis. The format is physicochemical. The following applies: read-out: Drug degradation.
Series [2] is described as follows: Inhibition of AgrC-2 in Staphylococcus aureus AH430 incubated for 24 hrs by fluorescence assay.
A short description of series [3]: Inhibition of AgrC-4 in Staphylococcus aureus AH1872 incubated for 24 hrs by fluorescence assay.
Series [4] in a line: Drug degradation in ammonium carbonate solution 0.3 mg after 72 hrs after RP-HPLC analysis. Type of series: physicochemical. Conditions: read-out: Drug degradation.
Series [5] is described as follows: Inhibition of AgrC-3 in Staphylococcus aureus AH1747 incubated for 24 hrs by fluorescence assay.
Series [6] is described as follows: Inhibition of AgrC-1 in Staphylococcus aureus AH1677 incubated for 24 hrs by fluorescence assay.
The nature of series [7]: Activation of AgrC-1 Staphylococcus epidermidis AH3408 incubated for 24 hrs by fluorescence assay.
Series [8] can be described thus: Inhibition of AgrC-2 in Staphylococcus aureus RN9372 incubated for 60 to 90 mins in presence of AIP agonist by beta-lactamase reporter gene assay. (Reporter assays use an easily measured gene product as a stand-in for the process of interest.)
Series [9] is described as follows: Drug degradation in ammonium carbonate solution 0.3 mg after 8 hrs after RP-HPLC analysis. The format is physicochemical. Conditions: read-out: Drug degradation.
Series [10] can be described thus: Inhibition of AgrC-1 in Staphylococcus aureus RN9222 incubated for 60 to 90 mins in presence of AIP agonist by beta-lactamase reporter gene assay.
Series [11] concerns Staphylococcus aureus. Description: Agonist activity at AgrC-3 in Staphylococcus aureus incubated for 60 to 90 mins by beta-lactamase reporter gene assay.
A short description of series [12]: Agonist activity at AgrC-4 in Staphylococcus aureus RN9371 incubated for 60 to 90 mins in presence of AIP agonist by beta-lactamase reporter gene assay.

Where a SMILES comes first, the peptide text is derived from it. Bridges are numbered along the chain shown (N, C = ends). [ ]: non-standard residue; d: D form. Dap = NC[C@H](N)C(=O)O

For orientation: IC50 means the midpoint of a concentration-inhibition curve. Consider `CC[C@H](C)[C@H](N)C(=O)N[C@@H](CC(N)=O)C(=O)N[C@H]1CNC(=O)[C@H](CC(C)C)NC(=O)[C@H](CC(C)C)NC(=O)[C@H](Cc2ccccc2)NC(=O)[C@H](C)NC1=O` (H-IN[Dap]AFLL; lactam 3-C), for which the degraded at 24 h in series [1] is 10%. Further, the IC50 in series [2] was 2.19 nM; in series [3] it was 0.192 nM; in series [5], 0.0551 nM; in series [6] it was 1.2 nM. Besides, the degraded at 72 h in series [4] amounted to 40%.
A word on the EC50: it is the concentration at which the effect is half-maximal. Read a high EC50 as a less potent agent. In series [7], `CC(C)[C@H](NC(=O)[C@H](CO)NC(=O)[C@H](C)N)C(=O)N[C@H]1CSC(=O)[C@H](Cc2ccccc2)NC(=O)[C@H](Cc2ccc(O)cc2)NC(=O)[C@H](C)NC(=O)[C@H](C)NC1=O` (H-ASVCAAYF; thioester 4-C) yielded an EC50 of 10.3 nM.
On to `CC[C@H](C)[C@H](N)C(=O)N[C@@H](CC(N)=O)C(=O)N[C@H]1CSC(=O)[C@H](CC(C)C)NC(=O)[C@H](CC(C)C)NC(=O)[C@H](Cc2ccccc2)NC(=O)[C@H](CC(=O)O)NC1=O` (H-INCDFLL; thioester 3-C), for which the IC50 in series [8] was 6 nM; in [10] it was 70 nM; in [6] it was 5.05 nM; in series [12] it was 150 nM. The degraded at 8 h in [9] turned out to be 100%. The ED50 in series [11] amounted to 26 nM.

The record behind these values is ChEMBL document CHEMBL4402540, “Structure-Activity Relationship Studies of Small Molecule Modulators of the Staphylococcal Accessory Gene Regulator” (J Med Chem, 2020).
